“Also recorded” adds a separate entry of the source.
Key:
[1] = molecular target: T1, H3 histamine receptor (Homo sapiens, UniProt Q9Y5N1); assay: Aequoscreen intrinsic activity assay (antagonist dose-response); type: cell-based
T1 construct: host or cells: recombinant frozen ready-to-use cells
Procedure: Intrinsic activity studies were performed by two methods, Aequoscreen and Lance cAMP assays according to the manufacturer of the ready to use cells with stable expression of the H3 histamine receptor (Perkin Elmer, Waltham, MA, USA).
The Aequoscreen technology uses the recombinant cell lines with stable co-expression of apoaequorin and a GPCR as a system to detect activation of the receptor, following addition of an agonist, via the measurement of light emission. For measurement cells (frozen, ready to use) were thawed and resuspended in 10 mL of an assay buffer containing 5 μM of coelenterazine h. Then cells suspension was placed in a 10 mL Falcon tube, fixed onto a rotating wheel and incubated overnight at RT° in the dark. Cells were diluted with assay buffer to 5000 cells/20 µL. Agonistic ligands 2× (50 μL/well), diluted in assay buffer, were prepared in 1/2 area white polystyrene plates, and the 50 μL of cell suspension was dispensed on the ligands using the injector. The light emission was recorded for 20 s. Cells were incubated with antagonist for 15 min at RT°. Then 50 µL of agonist (3 × EC80 final concentration) was injected onto the mixture of cells and antagonist and the light emission was recorded for 20 s.

[2] = in vitro; conditions: PAMPA, pH 7.4
Procedure: The reference compounds, well-permeable caffeine and low-permeable norfloxacin were obtained from Sigma-Aldrich (St. Louis, MO, USA). Used for this study, pre-coated PAMPA Plate System Gentest™ was provided by Corning (Tewksbury, MA, USA). The system consisted of 96-well receiver filter plate pre-coated with structured layers of phospholipids and a donor microplate. The assay was performed as described previously. […] After 5 h of incubation at RT° the UPLC-MS spectrometry (Waters ACQUITY™ TQD system with the TQ Detector, Waters, Milford, MA, USA) method was used to estimate the quantity of compounds that penetrated from donor to acceptor wells. The permeability coefficients (Pe, cm/s) were calculated using the formulas provided by Corning.

[3] = tested on: non-obese rats fed palatable diet; assay: Model of excessive eating: body weight, calorie intake, fat pads; type: in vivo, female Wistar rats; conditions: for body weight gain: i.p. daily 28 days, vs palatable diet + vehicle; for caloric intake over the 28 days: i.p., KSK compounds 10 mg/kg b.w. or bupropion/naltrexone
Procedure: Female Wistar rats were housed in pairs. […] The water was available ad libitum. Palatable control group (palatable diet + vehicle) received vehicle (1% Tween 80, i.p.), while palatable test groups (palatable diet + compound) were injected i.p. tested compounds at the dose of 10 or 1 mg/kg b.w./day suspended in 1% Tween 80 or the reference compound bupropion/naltrexon. The combination of bupropion at a dose of 20 mg/kg b.w./day and naltrexone at a dose of 1 mg/kg b.w./day was also suspended in 1% Tween 80 and administered i.p. Weight was evaluated daily. Calorie intake was evaluated ones per week. On the 31st day, 20 min after i.p. administration of heparin (5000 units/rat) and thiopental (70 mg/kg b.w.), animals were sacrificed and peritoneal fat pads were collected (Figure 11).
Palatable diet contained: 100 g peanuts—612 kcal; 100 mL condensed milk—131 kcal; 100 g milk chocolate—529 kcal; 100 g cheese—325 kcal. Standard diet contained 100 g feed—280 kcal.

[4] = tested on: female Wistar rats; assay: Visceral illness via kaolin intake (pica behavior); type: in vivo; conditions: for kaolin clay intake: single i.p. 10 mg/kg b.w.; for kaolin clay intake / water intake (pica model): vs control group that received i.p. CuSO4; for kaolin intake: KSK compounds 10 mg/kg or bupropion/naltrexone, vs vehicle control and CuSO4 control
Procedure: The method was based on the works by Takeda et al. and Yamamoto et al. with minor modification. The experiment lasted for five days. In addition to free access to feed, animals had also free access to a white kaolin. For the first few days, the animals were accustomed to the presence of kaolin in their cages. […] Moreover, animals were weighed before the compounds administration and 24 h after.

[5] = tested on: non-obese rats fed palatable diet; assay: Spontaneous activity (RFID TraffiCage); type: in vivo, female Wistar rats; conditions: KSK compounds 10 mg/kg, vs control fed palatable diet; for spontaneous activity after chronic administration: 27th day, i.p.; for spontaneous activity after first administration: day 1, i.p.
Procedure: The spontaneous activity of rats was measured on the 1st and 27th day of the treatment with a special RFID-system—TraffiCage (TSE-Systems, Germany). The animals were subcutaneously implanted with transmitter identification (RFID), which enabled the presence and time spent in different areas of the cage to be counted and then the data were grouped in a special computer program.

[6] = parameters: method as in PMID 31362197; conditions: PAMPA, published previously ref 17; cited from earlier work
[7] = palatable feed, KSK compounds 10 mg/kg b.w. or bupropion/naltrexone combination
[8] = palatable feed, vs palatable feed + vehicle

T1 sequence (Q9Y5N1 whole entry): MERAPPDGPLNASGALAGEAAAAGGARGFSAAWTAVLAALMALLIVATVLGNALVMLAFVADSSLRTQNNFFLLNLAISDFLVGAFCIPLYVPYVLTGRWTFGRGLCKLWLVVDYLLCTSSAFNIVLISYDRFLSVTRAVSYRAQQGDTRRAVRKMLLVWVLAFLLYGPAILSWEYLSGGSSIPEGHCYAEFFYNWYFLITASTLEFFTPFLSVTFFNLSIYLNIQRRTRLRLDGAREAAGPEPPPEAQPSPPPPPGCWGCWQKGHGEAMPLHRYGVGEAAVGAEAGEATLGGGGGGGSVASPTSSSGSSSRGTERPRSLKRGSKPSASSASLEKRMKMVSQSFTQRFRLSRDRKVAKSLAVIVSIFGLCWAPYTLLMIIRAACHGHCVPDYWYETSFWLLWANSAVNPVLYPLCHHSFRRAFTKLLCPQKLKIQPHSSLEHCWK

Row | Structure (SMILES) | IC50 [1] | Papp at 5 h, 200 µM [2] | body weight gain ([3]; palatable feed, 1 mg/kg b.w.) | body weight gain [3, 7] | caloric intake over the 28 days [3, 8] | kaolin clay intake [4] | water intake (pica model) ([4]; single i.p., 24 h) | kaolin intake ([4]; single i.p., 24 h) | spontaneous activity after chronic administration [5] | spontaneous activity after first administration [5] | fat pads in the peritoneal cavity ([3]; end of experiment, vs palatable feed + vehicle) | body weight after the first administration ([3]; palatable feed, i.p. 10 mg/kg b.w., 10 mg/kg) | calorie intake (pica model) ([4]; single i.p., 24 h, vs vehicle control) | Pe (permeability coefficient) ± SD [6]
1 | CC(=O)c1ccc(OCCCCCCN2CCN(c3ccncc3)CC2)cc1.O=C(O)C(=O)O [KSK-59, 1-(4-((6-(4-(pyridin-4-yl)piperazin-1-yl)hexyl)oxy)phenyl)ethan-1-one oxalate] | 3.31 ± 3.2 nM | 4.35 ± 0.93 ×10⁻⁶ cm/s | did not significantly affect weight gain | gained less weight than the control group fed palatable diet | comparable to the amount consumed by the control rats | consumed significantly less kaolin clay | lower water intake | did not consume more kaolin | did not affect spontaneous activity | did not affect spontaneous activity | – | – | – | –
2 | CC(=O)c1ccc(OCCCCCCCCN2CCN(c3ccncc3)CC2)cc1.O=C(O)C(=O)O [KSK-73, 1-(4-((8-(4-(pyridin-4-yl)piperazin-1-yl)octyl)oxy)phenyl)ethan-1-one oxalate] | 20.6 ± 4.5 nM | – | caused significantly greater weight gain | gained less weight than the control group fed palatable diet | significantly reduced animals caloric intake | consumed significantly less kaolin clay | lower water intake | did not consume more kaolin | no such changes were observed | statistically significant decrease in spontaneous activity | Significantly fewer fat pads | slowed down the rats’ body weight gain already after the first administration; also recorded: weight loss after the first administration | consumed fewer calories | 6.22 ± 2.3 10^−6 cm/s
